Where “and” joins values, the source holds several entries; their conditions need not be identical. Identical values can stand only once.
Key:
Assay type in all cases: in vivo
[1] = tested on: rats with intracerebral hemorrhage; experiment: Conditioned response of passive avoidance (CRPA) in rats with intracerebral hemorrhage; settings: 21st day, n = 15
Procedure: (§1) Neuroprotective effect of 3,2′-spiro-pyrrolo-2-oxindole derivative (SI-86 compound) was studied on IUD model of moderate severity modeled under propofol anesthesia (60 mg/kg intraperitoneally (ip)) by autoblood administration into the brain internal capsule (stereotactic coordinates of the projection: H=7.0 mm, L=3.0 mm, A=1.5 mm from bregma) ([…]) (Method for reproduction of intracerebral hemorrhage in rats/O. K. Yarosh, S. V. Kyrychenko, S. P. Halimonchyk [et al.]//Circulation and hemostasis.-2005.-No. 1.-P. 77-81). The chosen model allows to reproduce clinical pattern of […] and is adequate for clinical study of potential neuroprotective agents.
(§2) As comparators the following drugs were used: mexydol (“Mexydol” UC Pharmasoft, Russia), 100 mg/kg; citicoline (“Somazina” Ferrer International, SA, Spain), 250 mg/kg; aktovegin (“Aktovegin”, Nycomed, Austria), 16 mg/kg pyracetam (“Pyracetam” Darnitsa, Ukraine), 400 mg/kg. According to the latest clinical guidelines regarding the treatment of patients with CVA approved by the Ministry of Health of Ukraine (Order No. 602 dated 3 Aug. 2012), all these drugs are allowed to be included into schemes for intensive patients therapy with CVA as neuroprotective agents. They were used at recommended doses for preclinical studies (McGrow C. P. Experimental Cerebral Infarction Effects of Pentobarbital in Mongolian Gerbils/C. P. McGrow//Arch. Neurol.-1977.-Vol. 34, No. 6.-P. 334-336). Experimental therapy of acute cerebral ischemia with SI-86 compound and comparator started 1 hour after IUD once a day for 21 days. The SI-86 derivative was investigated in conventionally effective dose of 10 mg/kg […] (iv)-dose that according to the results of our previous study provides maximum antihypoxic activity of SI-86 compound. Reference drugs were injected intraperitoneally (ip). Rats of control pathology group were injected by autoblood and as therapy 0.9% NaCI solution was administered calculated for 2 ml/kg […].
(§3) Evaluation of the ability of animals to learn and memorize of aversive stimulus was examined in the test of conditioned response of passive avoidance (CRPA). The technique is based on innate rat instinct to limited shadowy space. The study in rats was conducted in two-compartment unit consisted of two sections—light and dark. An animal was arranged into light compartment, fixing latency time for entering into the dark compartment, wherein rat received current irritation and ran in the light compartment. CRPA retention was tested every other day under latency time change of rat entering into the dark compartment. Also the number of animals was noted not fully entered the dark chamber. Cerebroprotective efficiency criteria of studied compounds were also animal death term (days) and their mortality rate (in %).

[2] = tested on: rats with intracerebral hemorrhage; experiment: Lethality of rats with intracerebral hemorrhage of average severity
Procedure: The chosen model allows to reproduce clinical pattern of […] and is adequate for clinical study of potential neuroprotective agents.
As comparators the following drugs were used: mexydol (“Mexydol” UC Pharmasoft, Russia), 100 mg/kg; citicoline (“Somazina” Ferrer International, SA, Spain), 250 mg/kg; aktovegin (“Aktovegin”, Nycomed, Austria), 16 mg/kg pyracetam (“Pyracetam” Darnitsa, Ukraine), 400 mg/kg. According to the latest clinical guidelines regarding the treatment of patients with CVA approved by the Ministry of Health of Ukraine (Order No. 602 dated 3 Aug. 2012), all these drugs are allowed to be included into schemes for intensive patients therapy with CVA as neuroprotective agents. They were used at recommended doses for preclinical studies (McGrow C. P. Experimental Cerebral Infarction Effects of Pentobarbital in Mongolian Gerbils/C. P. McGrow//Arch. Neurol.-1977.-Vol. 34, No. 6.-P. 334-336). Experimental therapy of acute cerebral ischemia with SI-86 compound and comparator started 1 hour after IUD once a day for 21 days. […] Reference drugs were injected intraperitoneally (ip). Rats of control pathology group were injected by autoblood and as therapy 0.9% NaCI solution was administered calculated for 2 ml/kg iv.
Pseudo-operated rats were exposed to all interventions (anesthesia, craniotomy) excluding autoblood administration that leveled traumatic impact of experimental conditions.
as §3
Quantitative data were processed using statistical StatPlus 2009 processing. The statistical significance of differences was assessed by Fisher's angular transformation (lethality outcome), also parametric t Student criterion were used in case of normal distribution of variation series, nonparametric W White criterion—in its absence.

[3] = tested on: rats with intracerebral hemorrhage; experiment: Neurological deficit (C. P. McGrow stroke-index scale) in rats with intracerebral hemorrhage; settings: n = 15
Procedure: as §1, §2
Neurological deficit in animals with acute CVA respectively in acute (4th day) and recovery (21 st day) periods was measured on C. P. McGrow stroke-index scale. The state severity was determined by amount of relevant points: to 3 points-mild, 3 to 7 points-average, above 7 points-severe degree. Pareses, paralyses of limbs, tremors, circus movement, ptoses, lateral positions, ability of rats to be maintained at the core of 15 cm diameter, rotating at the rate of 3 rpm were noted. The animals were tested daily by displaying the amount of points:
one-sided semi-ptosis—0.5 points; one-sided ptosis—1 point; tremor—0.5 points; circus movements—0.5 points; pareses of limbs (for each limb)—1 point; paralyses of limbs (for each limb)—2 points; lateral position—3 points; disability to maintain on rotating rod during 4 minutes—3 points.

[4] = 12 h, SI-86 10 mg/kg iv, mexydol 100, citocoline 250, actovegin 16, pyracetam 400 mg/kg

NC(=O)CN1CCCC1=O [pyracetam]
Latent period for entrance into dark compartment, prior study ([1]; SI-86 10 mg/kg iv, mexydol 100, citocoline 250, actovegin 16, pyracetam 400 mg/kg ip): 15.90 ± 0.51°* s | Latent period for entrance into dark compartment, 24 hours after study ([1]; same doses): 71.10 ± 2.21 s | Lethality, % [2, 4]: 4.9% | Lethality, abs. [2, 4]: 2 | Lethality, % ([2]; 24 h, same doses): 14.6% | Lethality, abs. ([2]; 24 h, same doses): 6 | Lethality, % ([2]; 48 h, same doses): 22% | Lethality, abs. ([2]; 48 h, same doses): 9 | Lethality, % ([2]; 72 h, same doses): 24.4% | Lethality, abs. ([2]; 72 h, same doses): 10 | Lethality, % ([2]; 96 h, same doses): 27.5% | Lethality, abs. ([2]; 96 h, same doses): 11 | reduction of mortality in rats at the end of the observation period relative to control ([2]; within 4 days of therapy, same doses): no significant impact | neurological deficit, average point under C. P. McGrow scale ([3]; day 4, SI-86 10 mg/kg iv, mexydol 100, citocoline 250, actovegin 16, pyracetam 400 mg/kg ip): 6.90 ± 0.39° points | neurological deficit, average point under C. P. McGrow scale ([3]; day 21, same doses): 4.1 points and 4.10 ± 0.15°* points
